Data from patent US20110039763A1, “TARGETED ANTIMICROBIAL MOIETIES” (C3 JIAN, INC., priority 2009, published 2011).
“Also recorded” adds a separate entry of the source.

Columns and labels:
microorganisms [1] = experiment: Targeting peptide binding to target microorganisms (Tables 3, 10, 12); conditions: microorganism(s) the targeting peptide binds; binding in aqueous buffers varied with peptide solubility, preferably 1x PBS
microorganisms [2] = experiment: Morphology, biofilm and growth disrupting peptides (Table 5); format: cell-based; parameters: key: A: Peptide aggregates; B: Less hyphal formation; Clumps; Diffuse clumps and small polyps; F: Diffuse growth; H: Thin; I: Growth inhibition; Microcolony formation; Rippled; Small polyps; Thick; W: Halo formation on top, microlonies on bottom
From the text: In certain embodiments peptides that induce alterations in phenotype or other biological activities can also be used as antimicrobial effector moieties.

microorganisms [3] = experiment: Peptide activities: targeting/binding, antimicrobial, growth or phenotype altering (Tables 7, 8); format: cell-based; conditions: peptides having multiple activities

Substance | Target(s) (microorganisms [1]) | Organism, effect (microorganisms [2]; C. jejuni) | Organism, effect (microorganisms [2]; E. coli) | Organism, effect (microorganisms [2]; E. faecalis) | Organism, effect (microorganisms [2]; MRSA) | Organism, effect (microorganisms [2]; S. epidermidis) | Organism, effect (microorganisms [2]; S. pneumoniae) | Activities (microorganisms [3]) | Organism, effect (microorganisms [2]; C. albicans) | Organism, effect (microorganisms [2]; C. jeikeium)
PF-584: peptide having multiple activities (chain 1 SYIKNLSNQKFLIAF; chain 2 SYIKNLSNQKFLIAF; Peptide with targeting and/or antimicrobial activity) | S. epidermidis and M. luteus and P. mirabilis and C. albicans and MRSA and S. pneumoniae and E. faecalis and C. jeikeium | C. jejuni (D) | E. coli (C) | E. faecalis (D) | MRSA (D) | S. epidermidis (C) | S. pneumoniae (D) | G B |  | 
PF-585: peptide having multiple activities (chain 1 DYNHLLNVVQDWVNTN; chain 2 DYNHLLNVVQDWVNTN; Peptide with targeting and/or antimicrobial activity) | S. epidermidis and E. coli and C. albicans and MRSA and S. pneumoniae and C. jeikeium | C. jejuni (R) |  | E. faecalis (A) | MRSA (S) | S. epidermidis (S) | S. pneumoniae (R) | G B |  | 
PF-588: peptide having multiple activities (chain 1 ESVEAIKAKAIK; chain 2 ESVEAIKAKAIK; Peptide with targeting and/or antimicrobial activity) | S. epidermidis; also recorded: E. coli; also recorded: C. albicans; also recorded: E. faecalis; also recorded: C. jeikeium; also recorded: C. jejuni |  |  | E. faecalis (A) |  |  |  | G B |  | 
PF-590: peptide having multiple activities (chain 1 YYQAKLFPLL; chain 2 YYQAKLFPLL; Peptide with targeting and/or antimicrobial activity) | S. epidermidis; also recorded: M. luteus; also recorded: E. coli; also recorded: E. faecalis; also recorded: C. jeikeium | C. jejuni (R) |  |  |  |  |  | G B |  | 
PF-593: peptide having multiple activities (chain 1 MEISTLKKEKLHVKDELSQYLANYKK; chain 2 MEISTLKKEKLHVKDELSQYLANYKK; Peptide with targeting and/or antimicrobial activity) | C. jeikeium |  |  | E. faecalis (A) |  |  |  | G B |  | 
PF-594: peptide having multiple activities (chain 1 IVSAIV; chain 2 IVSAIV; Peptide with targeting and/or antimicrobial activity) | C. jeikeium |  |  | E. faecalis (C) |  |  |  | G B |  | 
PF-598: peptide having multiple activities (chain 1 MKFMLEVRNKAISAYKEITRTQI; chain 2 MKFMLEVRNKAISAYKEITRTQI; Peptide with targeting and/or antimicrobial activity) | S. epidermidis and M. luteus and P. mirabilis and P. aeruginosa and C. albicans and MRSA and S. pneumoniae and C. jeikeium | C. jejuni (R) | E. coli (C) | E. faecalis (R) | MRSA (D) | S. epidermidis (R) | S. pneumoniae (R) | G B |  | 
PF-599: peptide having multiple activities (chain 1 LFEIFKPKH; chain 2 LFEIFKPKH; Peptide with targeting and/or antimicrobial activity) | S. epidermidis and P. mirabilis and E. coli and C. albicans and MRSA and S. pneumoniae and C. jeikeium | C. jejuni (R) |  | E. faecalis (A) | MRSA (C) | S. epidermidis (M) | S. pneumoniae (R) | G B |  | 
PF-601: peptide having multiple activities (chain 1 YRVTVKALE; chain 2 YRVTVKALE; Peptide with targeting and/or antimicrobial activity) | C. jeikeium | C. jejuni (A) |  | E. faecalis (A) |  |  |  | G B |  | 
PF-602: peptide having multiple activities (chain 1 LEKEKKEYIEKLFKTK; chain 2 LEKEKKEYIEKLFKTK; Peptide with targeting and/or antimicrobial activity) | P. mirabilis; also recorded: C. jeikeium |  |  | E. faecalis (A) |  |  |  | G B |  | 
PF-604: peptide having multiple activities (chain 1 LMEQVEV; chain 2 LMEQVEV; Peptide with targeting and/or antimicrobial activity) | S. epidermidis; also recorded: C. albicans; also recorded: C. jeikeium |  |  | E. faecalis (A) |  |  |  | G B |  | 
PF-607: peptide having multiple activities (chain 1 YIESDPRKFDYIFGAIRDH; chain 2 YIESDPRKFDYIFGAIRDH; Peptide with targeting and/or antimicrobial activity) | S. epidermidis and P. mirabilis and E. coli and MRSA and S. pneumoniae and C. jeikeium | C. jejuni (R) |  | E. faecalis (A) | MRSA (S) | S. epidermidis (M) | S. pneumoniae (R) | G B |  | 
PF-609: peptide having multiple activities (chain 1 TEIKLDNNEYLVLNLDDILGILK; chain 2 TEIKLDNNEYLVLNLDDILGILK; Peptide with targeting and/or antimicrobial activity) | P. mirabilis; also recorded: E. coli; also recorded: S. pneumoniae | C. jejuni (R) |  | E. faecalis (A) | MRSA (C) |  | S. pneumoniae (R) | G B |  | 
PF-613: peptide having multiple activities (chain 1 ADEFAKL; chain 2 ADEFAKL; Peptide with targeting and/or antimicrobial activity) | C. jeikeium |  |  | E. faecalis (A) | MRSA (C) | S. epidermidis (R) |  | G B |  | 
PF-614: peptide having multiple activities (chain 1 GLDIYA; chain 2 GLDIYA; Peptide with targeting and/or antimicrobial activity) | S. epidermidis; also recorded: E. coli; also recorded: C. jeikeium | C. jejuni (R) |  | E. faecalis (A) |  | S. epidermidis (M) | S. pneumoniae (R) | G B |  | 
PF-616: peptide having multiple activities (chain 1 IVFVVTKEKK; chain 2 IVFVVTKEKK; Peptide with targeting and/or antimicrobial activity) | C. jeikeium |  |  | E. faecalis (A) |  | S. epidermidis (R) |  | G B |  | 
PF-617: peptide having multiple activities (chain 1 PMNAAEPE; chain 2 PMNAAEPE; Peptide with targeting and/or antimicrobial activity) | P. aeruginosa; also recorded: C. albicans |  |  | E. faecalis (H) |  |  | S. pneumoniae (I) | G B | C. albicans (H) | 
PF-621: peptide having multiple activities (chain 1 PPSSFLV; chain 2 PPSSFLV; Peptide with targeting and/or antimicrobial activity) | S. epidermidis; also recorded: C. albicans |  |  | E. faecalis (H) |  |  | S. pneumoniae (I) | G B |  | 
PF-622: peptide having multiple activities (chain 1 TREDVFSVRLINNIVNKQA; chain 2 TREDVFSVRLINNIVNKQA; Peptide with targeting and/or antimicrobial activity) | S. epidermidis; also recorded: P. aeruginosa; also recorded: C. albicans; also recorded: S. pneumoniae; also recorded: E. faecalis; also recorded: C. jeikeium |  |  | E. faecalis (D) | MRSA (D) | S. epidermidis (D) | S. pneumoniae (M) | G B |  | C. jeikeium (D)
PF-623: peptide having multiple activities (chain 1 VLFAVYLGALDWLFSWLTQKM; chain 2 VLFAVYLGALDWLFSWLTQKM; Peptide with targeting and/or antimicrobial activity) | S. epidermidis and P. aeruginosa and MRSA and S. pneumoniae and E. faecalis and C. jeikeium |  |  | E. faecalis (D) | MRSA (D) | S. epidermidis (M) | S. pneumoniae (D) | G B |  | C. jeikeium (R)
PF-625: peptide having multiple activities (chain 1 SDSTNNARTRKKARDVTTKDIDK; chain 2 SDSTNNARTRKKARDVTTKDIDK; Peptide with targeting and/or antimicrobial activity) | S. epidermidis; also recorded: M. luteus; also recorded: S. pneumoniae; also recorded: C. jeikeium |  |  |  |  |  | S. pneumoniae (H) | G B |  | 
